Experiments:
[1] = tested on: adult dogs; assay: Blood test for drug-induced hepatotoxicity, dog experiment
Procedure: Two adult dogs weighing 12 and 15 kg were used. One (coded A) of them received 500 mg/kg of body weight of acetaminophen oral solution (dissolved in water); and the other one (coded B) received a higher concentration (1,200 mg/kg of body weight) of acetaminophen via subcutaneous injection. After Nembutal was injected and the respirator was put on, the hair on the front legs of the dogs was shaved and a blood pressure waveform sensor was inserted by operation. The waveform of artery blood pressure waveform on brachial position was continuously recorded and analyzed by a computer with a frequency of 100 data per minute. After surgery and before the drug was orally taken or injected, the blood pressure waveform of each dog was measured for two hours as the baseline. After the drug was orally taken or injected, the blood pressure waveform was continuously monitored for analyzing the hepatotoxicity induced by the drug, and blood samples were periodically taken from a tube inserted into the artery for determining the level of hepatotoxicuty.

[2] = tested on: adult dogs; assay: Artery blood pressure waveform analysis before and after taking the drug, dog experiment; assay type: in vivo; conditions: Code A dog, 500 mg/kg oral
Text: The definition of parameter altered amount is: (the parameter value after taking the drug—the parameter value before taking the drug)/the parameter value before taking the drug *100%

[3] = Code A dog, 500 mg/kg oral, 1 hour after the drug was administered
[4] = Code A dog, 500 mg/kg oral, 6 hours after the drug was administered
[5] = Code A dog, 500 mg/kg oral, 12 hours after the drug was administered
[6] = Code B dog, 1,200 mg/kg subcutaneous injection, 1 hour after the drug was administered
[7] = Code B dog, 1,200 mg/kg subcutaneous injection, 6 hours after the drug was administered
[8] = Code B dog, 1,200 mg/kg subcutaneous injection, 12 hours after the drug was administered
[9] = before and after taking the drug (12 hours)

CC(=O)Nc1ccc(O)cc1 [acetaminophen]
ALT (SGPT) [1, 3]: 25 IU/leter | ASG (SGOT) [1, 3]: 35 IU/leter | Total biliflavin [1, 3]: 0.3 mg/dL | ALT (SGPT) [1, 4]: 23 IU/leter | ASG (SGOT) [1, 4]: 33 IU/leter | Total biliflavin [1, 4]: 0.2 mg/dL | ALT (SGPT) [1, 5]: 24 IU/leter | ASG (SGOT) [1, 5]: 45 IU/leter | Total biliflavin [1, 5]: 0.2 mg/dL | ALT (SGPT) [1, 6]: 33 IU/leter | ASG (SGOT) [1, 6]: 38 IU/leter | Total biliflavin [1, 6]: 0.2 mg/dL | ALT (SGPT) [1, 7]: 37 IU/leter | ASG (SGOT) [1, 7]: 198 IU/leter | Total biliflavin [1, 7]: 0.2 mg/dL | ALT (SGPT) [1, 8]: 47 IU/leter | ASG (SGOT) [1, 8]: 298 IU/leter | Total biliflavin [1, 8]: 0.2 mg/dL | biliflavin ([1]; Code B dog, 1,200 mg/kg subcutaneous injection, acute poisoning experiment): does not raise significantly | ALT ([1]; Code B dog, 1,200 mg/kg subcutaneous injection, after 12 hours): 47 IU/L | AST (SGOT) ([1]; Code B dog, 1,200 mg/kg subcutaneous injection, after 12 hours, baseline 41): 298 IU/liter | hepatotoxicity shown by blood test results ([1]; Code B dog, 1,200 mg/kg via subcutaneous injection): a certain level of hapatotoxicity | Oblique angle parameter D1 = (Bb-Aa)/ab ([2]; 12 hours after taking the drug): D1 = (Bb-Aa)/ab = 92 mmHg/sec. | Oblique angle parameter D2 = (Bb-Cc)/bc ([2]; 12 hours after taking the drug): D2 = (Bb-Cc)/bc = 350 mmHg/sec. | Oblique angle parameter D3 = (Dd-Cc)/cd ([2]; 12 hours after taking the drug): D3 = (Dd-Cc)/cd = 420 mmHg/sec. | Oblique angle parameter D4 = (Dd-Ee)/de ([2]; 12 hours after taking the drug): D4 = (Dd-Ee)/de = 110 mmHg/sec. | Oblique angle parameter D5 = D1 + D2 ([2]; 12 hours after taking the drug): D5 = D1 + D2 = 1270 mmHg/sec. | Oblique angle parameter D6 = D3 + D4 ([2]; 12 hours after taking the drug): D6 = D3 + D4 = 530 mmHg/sec. | Pressure parameter P1 = Aa ([2]; 12 hours after taking the drug): P1 = Aa = 149 mmHg | Pressure parameter P2 = Bb ([2]; 12 hours after taking the drug): P2 = Bb = 195 mmHg | Pressure parameter P3 = Cc ([2]; 12 hours after taking the drug): P3 = Cc = 156 mmHg | Pressure parameter P4 = Dd ([2]; 12 hours after taking the drug): P4 = Dd = 173 mmHg | Pressure parameter P5 = Ee ([2]; 12 hours after taking the drug): P5 = Ee = 149 mmHg | Ratio parameter RA1 = A6/A5 ([2]; 12 hours after taking the drug): RA1 = A6/A5 = 1.46 | Ratio parameter RA2 = A5/A7 ([2]; 12 hours after taking the drug): RA2 = A5/A7 = 0.41 | Ratio parameter RA3 = A6/A7 ([2]; 12 hours after taking the drug): RA3 = A6/A7 = 0.59 | Ratio parameter RP1 = Dd/Bb ([2]; 12 hours after taking the drug): RP1 = Dd/Bb = 0.89 | Ratio parameter RT1 = ab/ae ([2]; 12 hours after taking the drug): RT1 = ab/ae = 0.12 | Ratio parameter RT2 = ac/ae ([2]; 12 hours after taking the drug): RT2 = ac/ae = 0.40 | Ratio parameter RT3 = ad/ae ([2]; 12 hours after taking the drug): RT3 = ad/ae = 0.49 | Superficial measure parameter A1 = AabB ([2]; 12 hours after taking the drug): A1 = AabB = 9 sec. * mmHg | Superficial measure parameter A2 = BbcC ([2]; 12 hours after taking the drug): A2 = BbcC = 19 sec. * mmHg | Superficial measure parameter A3 = CcdD ([2]; 12 hours after taking the drug): A3 = CcdD = 7 sec. * mmHg | Superficial measure parameter A4 = DdeE ([2]; 12 hours after taking the drug): A4 = DdeE = 34 sec. * mmHg | Superficial measure parameter A5 = A1 + A2 ([2]; 12 hours after taking the drug): A5 = A1 + A2 = 28 sec. * mmHg | Superficial measure parameter A6 = A3 + A4 ([2]; 12 hours after taking the drug): A6 = A3 + A4 = 41 sec. * mmHg | Superficial measure parameter A7 = A5 + A6 ([2]; 12 hours after taking the drug): A7 = A5 + A6 = 69 sec. * mmHg | Time parameter T1 = ab ([2]; 12 hours after taking the drug): T1 = ab = 0.05 second | Time parameter T2 = bc ([2]; 12 hours after taking the drug): T2 = bc = 0.11 second | Time parameter T3 = cd ([2]; 12 hours after taking the drug): T3 = cd = 0.04 second | Time parameter T4 = de ([2]; 12 hours after taking the drug): T4 = de = 0.21 second | Time parameter T5 = ae ([2]; 12 hours after taking the drug): T5 = ae = 0.41 second | Pressure parameter Altered amount P1 = Aa [2, 9]: P1 = Aa = 0.7 mmHg | Pressure parameter Altered amount P2 = Bb [2, 9]: P2 = Bb = 1.0 mmHg | Pressure parameter Altered amount P3 = Cc [2, 9]: P3 = Cc = 1.3 mmHg | Pressure parameter Altered amount P4 = Dd [2, 9]: P4 = Dd = 2.4 mmHg | Pressure parameter Altered amount P5 = Ee [2, 9]: P5 = Ee = 0.7 mmHg | Ratio parameter Altered amount RA1 = A6/A5 [2, 9]: RA1 = A6/A5 = 12.3 | Ratio parameter Altered amount RA2 = A5/A7 [2, 9]: RA2 = A5/A7 = −6.8 | Ratio parameter Altered amount RA3 = A6/A7 [2, 9]: RA3 = A6/A7 = 5.3 | Ratio parameter Altered amount RP1 = Dd/Bb [2, 9]: RP1 = Dd/Bb = 9.2 | Ratio parameter Altered amount RT1 = ab/ae [2, 9]: RT1 = ab/ae = −25.0 | Ratio parameter Altered amount RT2 = ac/ae [2, 9]: RT2 = ac/ae = −5.0 | Ratio parameter Altered amount RT3 = ad/ae [2, 9]: RT3 = ad/ae = −11.0 | Superficial measure parameter Altered amount A1 = AabB [2, 9]: Al = AabB = −10.0 sec. * mmHg | Superficial measure parameter Altered amount A2 = BbcC [2, 9]: A2 = BbcC = 11.8 sec. * mmHg | Superficial measure parameter Altered amount A3 = CcdD [2, 9]: A3 = CcdD = −12.5 sec. * mmHg | Superficial measure parameter Altered amount A4 = DdeE [2, 9]: A4 = DdeE = 25.9 sec. * mmHg | Superficial measure parameter Altered amount A5 = A1 + A2 [2, 9]: A5 = A1 + A2 = 3.7 sec. * mmHg | Superficial measure parameter Altered amount A6 = A3 + A4 [2, 9]: A6 = A3 + A4 = 17.1 sec. * mmHg | Superficial measure parameter Altered amount A7 = A5 + A6 [2, 9]: A7 = A5 + A6 = 11.3 sec. * mmHg | Time parameter Altered Amount T2 = bc [2, 9]: T2 = bc = 10.0 second

— patent US7074190B2, “Non-invasive apparatus system for monitoring drug hepatoxicity and uses thereof” (priority 2002, dated 2006)
